Assay results from patent US4992437A, “Thienodiazepine compounds and their pharmaceutical use” (Yoshitomi Pharmaceutical Industries, Ltd., priority 1987, dated 1991).
Like-named read-outs stand apart in the source and are kept apart here. Blank lines part the entries; values can stand above or below the compound they belong to.

Columns and labels:
CCK receptor (pancreas) = molecular target: T1, CCK receptor (pancreas) (Canis lupus familiaris, UniProt Q5D0K2); test: CCK receptor-binding, pancreas (125I-CCK-8); set-up: species or system male mongrel adult dog
T1 construct: from tissue; host or cells: dog pancreas membranes (whole pancreas, homogenized and centrifuged)
T1 sequence (Q5D0K2 1-428): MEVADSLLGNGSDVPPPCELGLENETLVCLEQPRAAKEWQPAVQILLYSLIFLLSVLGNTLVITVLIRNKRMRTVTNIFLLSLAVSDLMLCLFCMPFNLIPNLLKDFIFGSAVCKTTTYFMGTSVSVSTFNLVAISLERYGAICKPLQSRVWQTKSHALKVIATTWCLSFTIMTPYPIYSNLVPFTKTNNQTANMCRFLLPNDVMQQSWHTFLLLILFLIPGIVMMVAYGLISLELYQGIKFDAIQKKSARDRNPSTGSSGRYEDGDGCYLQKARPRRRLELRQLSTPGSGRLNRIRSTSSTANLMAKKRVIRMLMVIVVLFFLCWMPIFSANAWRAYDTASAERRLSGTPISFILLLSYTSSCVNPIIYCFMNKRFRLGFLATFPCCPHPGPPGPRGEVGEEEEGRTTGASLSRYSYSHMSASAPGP
Method: The entire pancreas of a male mongrel adult dog was extracted and the fat tissues thereof were removed. The residual portion was homogenized in 50 mM tris hydrochloride (pH 7.5) (Blinkman·Polytron PT20). After the filtration with nylon cloth (120 mesh) followed by centrifugation (50,000×g, for 12 minutes), the obtained sediment was homogenized in a tris buffer solution in the same manner as mentioned above and the homogenate was centrifuged. The obtained sediment was suspended in a buffer solution for binding assay (5 mM magnesium chloride, chloride, 5 mM dithiothreitol, 2 mg/ml bovine serum albumin, 0.1 mg/ml bacitracin, and 50 mM tris hydrochloride, pH 7.2), containing 0.14 mg/ml trypsin-inhibitor (soy bean), and the suspension was used as the receptor source.

CCK-8 = test: Effects on gastric excreting capability (Gastric emptying test), CCK-8 challenge; type: in vivo, male ddY mice
Method: At 5 minutes' lapse thereafter, 0.1 ml of a 1.5% aqueous solution of methyl cellulose containing 0.05% phenolred (Sigma) was orally administered. After 15 minutes, the stomach was extracted and the gastric contents were mixed with a 10% aqueous solution of trichloroacetic acid. After the removal of the proteins, the residue was centrifuged at 3000 rpm for 10 minutes. To the supernatant was added a 1N solution of sodium hydroxide and the mixture was again centrifuged. Thereafter, OD560 value of the supernatant was measured by the spectrophotometer (Hitachi 200-10 type) to estimate the minimum effective dose (MED).

CCK receptor (brain) = molecular target: T2, CCK receptor (brain); test: CCK receptor-binding, brain (125I-CCK-8)
T2 construct: Brain; from tissue
T2 sequence (P32239 whole entry): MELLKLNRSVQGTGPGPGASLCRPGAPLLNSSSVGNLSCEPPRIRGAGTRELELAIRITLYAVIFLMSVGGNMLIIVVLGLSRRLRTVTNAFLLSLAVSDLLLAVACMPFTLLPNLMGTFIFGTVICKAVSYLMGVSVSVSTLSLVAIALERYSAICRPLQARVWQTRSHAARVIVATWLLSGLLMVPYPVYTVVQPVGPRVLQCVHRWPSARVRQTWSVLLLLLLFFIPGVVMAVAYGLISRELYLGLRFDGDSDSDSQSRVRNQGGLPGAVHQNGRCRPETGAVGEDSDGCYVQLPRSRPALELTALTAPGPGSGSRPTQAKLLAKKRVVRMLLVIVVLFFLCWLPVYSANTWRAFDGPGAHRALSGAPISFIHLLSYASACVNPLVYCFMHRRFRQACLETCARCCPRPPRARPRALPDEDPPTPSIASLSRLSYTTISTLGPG

Acute toxicity test = type: in vivo; settings: oral; 6 male mice; observed for consecutive 5 days
Excerpt: The acute toxicity of the compounds of the present invention was studied with the use of 6 male mice.

[1] = pancreas membranes of dog, 125I-CCK-8, 20° C., 30 minutes, read-out: CCK binding, IC50 Pancreas

Compound: CCc1cc2c(s1)-n1c(C)nnc1C(NC(=O)c1cc3ccccc3[nH]1)N=C2c1ccccc1Cl (stereo not shown) [Compound A, 4-(2-Chlorophenyl)-2-ethyl-6-(2-indolecarboxamido)-9-methyl-6H-thieno[3,2-f][1,2,4]triazolo[4,3-a][1,4]diazepine]
IC50 (CCK receptor (pancreas)): 0.6 nM | minimal effective dose at 0.03 mg/kg (CCK-8; Mus musculus, po, 25 min; read-out: Gastric Emptying MED (minimum effective dose)): 0.3 to 1 mg/kg | IC50 (CCK receptor (brain)): 1.8 nM | acute toxicity (Acute toxicity test): low toxicity

Compound: CN1C(=O)C(NC(=O)c2cc3ccccc3[nH]2)N=C(c2ccccc2)c2ccccc21 [Example L-364718, N-(2,3-Dihydro-1-methyl-2-oxo-5-phenyl-1H-1,4-benzodiazepin-3-yl)-1H-indole-2-carboxamide, reference compound]
minimal effective dose at 0.03 mg/kg (CCK-8; Mus musculus, po, 25 min, read-out: Gastric Emptying MED (minimum effective dose)): 0.1 to 0.3 mg/kg

IC50 (CCK receptor (pancreas); [1]): 800 nM
Compound: CCK-4

IC50 (CCK receptor (pancreas); [1]): 0.6 nM
Compound: CCK-8: CCK-8 which consists of the 8 amino acids at the C terminus of CCK
